Test results published in PubChem BioAssay AID2060901 (Molecular Pharmacology Branch, DTP, NCI, 2025).

Test system: 422866-222-R5-J1-PDC complex spheroids viability
Assay: Anticancer human tumor 422866-222-R5-J1-PDC patient-derived pancreatic adenocarcinoma cell line growth inhibition [RAS]
Conditions: for IC50: curve of first compound; for viability, T/C: stronger effect = lower value; active means viability on the fitted dose curve at most 10% of control; inactive means the rest
Outline: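 Tumour cells grown as complex spheroids with HUVEC endothelial cells and mesenchymal stem cells, treated with RAS pathway inhibitor combinations. Each agent spans half-log steps from near clinical Cmax, or 10 microM where Cmax is unknown.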

[1] = second compound 0.000949 µM, first compound 0.0316 µM
[2] = second compound 0.000949 µM, first compound 0.1 µM
[3] = second compound 0.000949 µM, first compound 0.316 µM
[4] = second compound 0.000949 µM, first compound 1 µM
[5] = second compound 0.000949 µM, first compound 3.16 µM
[6] = second compound 0.000949 µM, first compound 10 µM
[7] = second compound 0.003 µM, first compound 0.0316 µM
[8] = second compound 0.003 µM, first compound 0.1 µM
[9] = second compound 0.003 µM, first compound 0.316 µM
[10] = second compound 0.003 µM, first compound 1 µM
[11] = second compound 0.003 µM, first compound 3.16 µM
[12] = second compound 0.003 µM, first compound 10 µM
[13] = second compound 0.00949 µM, first compound 0.0316 µM
[14] = second compound 0.00949 µM, first compound 0.1 µM
[15] = second compound 0.00949 µM, first compound 0.316 µM
[16] = second compound 0.00949 µM, first compound 1 µM
[17] = second compound 0.00949 µM, first compound 3.16 µM
[18] = second compound 0.00949 µM, first compound 10 µM
[19] = second compound 0.03 µM, first compound 0.0316 µM
[20] = second compound 0.03 µM, first compound 0.1 µM
[21] = second compound 0.03 µM, first compound 0.316 µM
[22] = second compound 0.03 µM, first compound 1 µM
[23] = second compound 0.03 µM, first compound 3.16 µM
[24] = second compound 0.03 µM, first compound 10 µM
[25] = second compound 0.0949 µM, first compound 0.0316 µM
[26] = second compound 0.0949 µM, first compound 0.1 µM
[27] = second compound 0.0949 µM, first compound 0.316 µM
[28] = second compound 0.0949 µM, first compound 1 µM
[29] = second compound 0.0949 µM, first compound 3.16 µM
[30] = second compound 0.0949 µM, first compound 10 µM
[31] = second compound 0.3 µM, first compound 0.0316 µM
[32] = second compound 0.3 µM, first compound 0.1 µM
[33] = second compound 0.3 µM, first compound 0.316 µM
[34] = second compound 0.3 µM, first compound 1 µM
[35] = second compound 0.3 µM, first compound 3.16 µM
[36] = second compound 0.3 µM, first compound 10 µM
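Further: spheroids exposed to compounds for 7 days.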
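Wherever viability, T/C is given: 100% = DMSO vehicle control viability.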

C[C@@H](NC(=O)c1ncnc(N)c1Cl)c1ncc(C(=O)Nc2cc(C(F)(F)F)c(Cl)cn2)s1 + CCn1c(-c2cc(N3CCN(C)CC3)cnc2C(C)OC)c2c3cc(ccc31)-c1csc(n1)CC(NC(=O)C1CC1C)C(=O)N1CCCC(N1)C(=O)OCC(C)(C)C2
< 31.6 nM: IC50 (second compound 0.000949 µM) | IC50 (second compound 0.003 µM) | IC50 (second compound 0.00949 µM) | IC50 (second compound 0.03 µM) | IC50 (second compound 0.0949 µM) | IC50 (second compound 0.3 µM)
inactive: viability, T/C [1] 33.8% | viability, T/C [2] 40.3% | viability, T/C [3] 33.5% | viability, T/C [4] 36.9% | viability, T/C [5] 39.1% | viability, T/C [6] 37.2% | viability, T/C [7] 24.8% | viability, T/C [8] 26.4% | viability, T/C [9] 26.2% | viability, T/C [10] 25.8% | viability, T/C [11] 26.1% | viability, T/C [12] 30.1% | viability, T/C [13] 21% | viability, T/C [14] 20.3% | viability, T/C [15] 21.1% | viability, T/C [16] 22.2% | viability, T/C [17] 24.3% | viability, T/C [18] 24.3% | viability, T/C [19] 20.4% | viability, T/C [20] 19.8% | viability, T/C [21] 20.8% | viability, T/C [22] 23.8% | viability, T/C [23] 24.1% | viability, T/C [24] 22.2% | viability, T/C [25] 21.3% | viability, T/C [26] 20.6% | viability, T/C [27] 21.1% | viability, T/C [28] 19.9% | viability, T/C [29] 23.1% | viability, T/C [30] 24.3% | viability, T/C [31] 19.5% | viability, T/C [32] 20.2% | viability, T/C [33] 21.4% | viability, T/C [34] 20.9% | viability, T/C [35] 22.6% | viability, T/C [36] 24.8%

C[C@@H](NC(=O)c1ncnc(N)c1Cl)c1ncc(C(=O)Nc2cc(C(F)(F)F)c(Cl)cn2)s1 + C=CC(=O)N1CCN(c2nc(OCC3CCCN3C)nc3c(F)c(-c4nc(N)cc(C)c4C(F)(F)F)c(Cl)cc23)C(C)C1
< 31.6 nM: IC50 (second compound 0.00316 µM) | IC50 (second compound 0.01 µM) | IC50 (second compound 0.0316 µM) | IC50 (second compound 0.1 µM) | IC50 (second compound 0.316 µM) | IC50 (second compound 1 µM)
inactive: viability, T/C (second compound 0.00316 µM, first compound 0.0316 µM) 31.7% | viability, T/C (second compound 0.00316 µM, first compound 0.1 µM) 47.2% | viability, T/C (second compound 0.00316 µM, first compound 0.316 µM) 31.7% | viability, T/C (second compound 0.00316 µM, first compound 1 µM) 29% | viability, T/C (second compound 0.00316 µM, first compound 3.16 µM) 32% | viability, T/C (second compound 0.00316 µM, first compound 10 µM) 30.6% | viability, T/C (second compound 0.01 µM, first compound 0.0316 µM) 41.5% | viability, T/C (second compound 0.01 µM, first compound 0.1 µM) 32.2% | viability, T/C (second compound 0.01 µM, first compound 0.316 µM) 33.3% | viability, T/C (second compound 0.01 µM, first compound 1 µM) 29.2% | viability, T/C (second compound 0.01 µM, first compound 3.16 µM) 30% | viability, T/C (second compound 0.01 µM, first compound 10 µM) 28.9% | viability, T/C (second compound 0.0316 µM, first compound 0.0316 µM) 30.8% | viability, T/C (second compound 0.0316 µM, first compound 0.1 µM) 30.8% | viability, T/C (second compound 0.0316 µM, first compound 0.316 µM) 25.1% | viability, T/C (second compound 0.0316 µM, first compound 1 µM) 27.4% | viability, T/C (second compound 0.0316 µM, first compound 3.16 µM) 29.5% | viability, T/C (second compound 0.0316 µM, first compound 10 µM) 26.7% | viability, T/C (second compound 0.1 µM, first compound 0.0316 µM) 30.5% | viability, T/C (second compound 0.1 µM, first compound 0.1 µM) 25% | viability, T/C (second compound 0.1 µM, first compound 0.316 µM) 27.9% | viability, T/C (second compound 0.1 µM, first compound 1 µM) 30.3% | viability, T/C (second compound 0.1 µM, first compound 3.16 µM) 26.7% | viability, T/C (second compound 0.1 µM, first compound 10 µM) 30.5% | viability, T/C (second compound 0.316 µM, first compound 0.0316 µM) 28% | viability, T/C (second compound 0.316 µM, first compound 0.1 µM) 24.1% | viability, T/C (second compound 0.316 µM, first compound 0.316 µM) 27.6% | viability, T/C (second compound 0.316 µM, first compound 1 µM) 23.1% | viability, T/C (second compound 0.316 µM, first compound 3.16 µM) 28.6% | viability, T/C (second compound 0.316 µM, first compound 10 µM) 31.8% | viability, T/C (second compound 1 µM, first compound 0.0316 µM) 27.1% | viability, T/C (second compound 1 µM, first compound 0.1 µM) 29.4% | viability, T/C (second compound 1 µM, first compound 0.316 µM) 27.2% | viability, T/C (second compound 1 µM, first compound 1 µM) 30% | viability, T/C (second compound 1 µM, first compound 3.16 µM) 32.1% | viability, T/C (second compound 1 µM, first compound 10 µM) 29.4%

CC1(O)CCCC1n1c(=O)c(C(F)F)cc2cnc(NC3CCN(S(C)(=O)=O)CC3)nc21 (stereo unspecified) + CCn1c(-c2cc(N3CCN(C)CC3)cnc2C(C)OC)c2c3cc(ccc31)-c1csc(n1)CC(NC(=O)C1CC1C)C(=O)N1CCCC(N1)C(=O)OCC(C)(C)C2
inactive: viability, T/C [1] 30% | viability, T/C [2] 30.3% | viability, T/C [3] 34.5% | viability, T/C [4] 34% | viability, T/C [5] 38% | viability, T/C [6] 40.2% | viability, T/C [7] 27.9% | viability, T/C [8] 25.8% | viability, T/C [9] 26.4% | viability, T/C [10] 30.1% | viability, T/C [11] 32.5% | viability, T/C [12] 49.2% | viability, T/C [13] 23% | viability, T/C [14] 20.7% | viability, T/C [15] 22.4% | viability, T/C [16] 23.3% | viability, T/C [17] 26% | viability, T/C [18] 28.8% | viability, T/C [19] 18.8% | viability, T/C [20] 19.8% | viability, T/C [21] 22.8% | viability, T/C [22] 20.4% | viability, T/C [23] 29.8% | viability, T/C [24] 44.2% | viability, T/C [25] 19.3% | viability, T/C [26] 22.8% | viability, T/C [27] 21.2% | viability, T/C [28] 24% | viability, T/C [29] 24.9% | viability, T/C [30] 47% | viability, T/C [31] 18.9% | viability, T/C [32] 21.1% | viability, T/C [33] 23.3% | viability, T/C [34] 22.4% | viability, T/C [35] 29.6% | viability, T/C [36] 50.5%
< 31.6 nM: IC50 (second compound 0.000949 µM) | IC50 (second compound 0.003 µM) | IC50 (second compound 0.00949 µM) | IC50 (second compound 0.03 µM) | IC50 (second compound 0.0949 µM) | IC50 (second compound 0.3 µM)
